Columns and labels:
Type in all cases: in vivo
[1] = system: barnyardgrass (Echinochloa crus-galli); assay: Test A postemergence, visual injury rating; conditions: 0 is no effect, 100 is complete control
How it was run: (§1)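 Pre- and postemergence greenhouse screen. Soil: loam + sand. Spray carrier: solvent mixture, non-phytotoxic, with surfactant. Post timing at 1–2 leaves, height 2–10 cm. Readout: visual injury on a 0–100 scale roughly 10 days after application, untreated plants as reference.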

[2] = system: blackgrass (Alopecurus myosuroides); assay: Test A postemergence, visual injury rating; conditions: 0 is no effect, 100 is complete control
How it was run: as §1

[3] = system: galium (catchweed bedstraw, Galium aparine); assay: Test A postemergence, visual injury rating; conditions: 0 is no effect, 100 is complete control
How it was run: as §1

[4] = system: blackgrass (Alopecurus myosuroides); assay: Test C preemergence, plant response rating; conditions: Preemergence
How it was run: (§2)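 Greenhouse plants rated visually against untreated controls 13–15 d after treatment, scale 0 = no effect to 100 = complete control. Postemergence sprays went onto potted plants 2–18 cm tall (1–4 leaves); preemergence sprays onto soil freshly sown in loam–sand or silt loam, chemicals formulated in non-phytotoxic solvent with surfactant.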

[5] = system: corn (Zea mays); assay: Test C preemergence, plant response rating; conditions: Preemergence
How it was run: as §2

[6] = system: crabgrass, large (large crabgrass, Digitaria sanguinalis); assay: Test C preemergence, plant response rating; conditions: Preemergence
How it was run: as §2

[7] = system: foxtail, giant (giant foxtail, Setaria faberii); assay: Test C preemergence, plant response rating; conditions: Preemergence
How it was run: as §2

[8] = system: lambsquarters (Chenopodium album); assay: Test C preemergence, plant response rating; conditions: Preemergence
How it was run: as §2

[9] = system: morningglory (Ipomoea coccinea); assay: Test C preemergence, plant response rating; conditions: Preemergence
How it was run: as §2

[10] = system: nutsedge, yellow (yellow nutsedge, Cyperus esculentus); assay: Test C preemergence, plant response rating; conditions: Preemergence
How it was run: as §2

[11] = system: oilseed rape (Brassica napus); assay: Test C preemergence, plant response rating; conditions: Preemergence
How it was run: as §2

[12] = system: ragweed (common ragweed, Ambrosia elatior); assay: Test C preemergence, plant response rating; conditions: Preemergence
How it was run: as §2

[13] = system: ryegrass, Italian (Italian ryegrass, Lolium multiflorum); assay: Test C preemergence, plant response rating; conditions: Preemergence
How it was run: as §2

[14] = system: soybean (Glycine max); assay: Test C preemergence, plant response rating; conditions: Preemergence
How it was run: as §2

[15] = system: velvetleaf (Abutilon theophrasti); assay: Test C preemergence, plant response rating; conditions: Preemergence
How it was run: as §2

[16] = system: waterhemp (common waterhemp, Amaranthus rudis); assay: Test C preemergence, plant response rating; conditions: Preemergence
How it was run: as §2

[17] = system: wheat (winter wheat, Triticum aestivum); assay: Test C preemergence, plant response rating; conditions: Preemergence
How it was run: as §2

C=C(Br)COC(=O)c1c(Br)cccc1Oc1ncc(Cl)cn1 [Compound 61] was tested, and the “Barnyardgrass plant response rating (0 to 100 scale)” value ([1]; 125 g ai/ha) was 100, the “Barnyardgrass plant response rating (0 to 100 scale)” value ([1]; 500 g ai/ha) was 100 and the “Blackgrass plant response rating (0 to 100 scale)” value ([2]; 125 g ai/ha) was 30. The “Blackgrass plant response rating (0 to 100 scale)” value ([2]; 500 g ai/ha) was 100, the “Galium plant response rating (0 to 100 scale)” value ([3]; 125 g ai/ha) was 60 and the “Galium plant response rating (0 to 100 scale)” value ([3]; 500 g ai/ha) was 100. For the same compound, the “Plant response rating, Blackgrass” value ([4]; 62 g ai/ha, scale of 0 to 100) was 0, the “Plant response rating, Blackgrass” value ([4]; 125 g ai/ha, scale of 0 to 100) was 5 and the “Plant response rating, Blackgrass” value ([4]; 16 g ai/ha, scale 0 to 100) was 0. For the same compound, the “Plant response rating, Blackgrass” value ([4]; 31 g ai/ha, scale 0 to 100) was 0, the “Plant response rating, Corn” value ([5]; 62 g ai/ha, scale of 0 to 100) was 10 and the “Plant response rating, Corn” value ([5]; 125 g ai/ha, scale of 0 to 100) was 0. The “Plant response rating, Corn” value ([5]; 16 g ai/ha, scale 0 to 100) was 0, the “Plant response rating, Corn” value ([5]; 31 g ai/ha, scale 0 to 100) was 0 and the “Plant response rating, Crabgrass, Large” value ([6]; 62 g ai/ha, scale of 0 to 100) was 75. For the same compound, the “Plant response rating, Crabgrass, Large” value ([6]; 125 g ai/ha, scale of 0 to 100) was 90, the “Plant response rating, Crabgrass, Large” value ([6]; 16 g ai/ha, scale 0 to 100) was 0 and the “Plant response rating, Crabgrass, Large” value ([6]; 31 g ai/ha, scale 0 to 100) was 10. The “Plant response rating, Foxtail, Giant” value ([7]; 62 g ai/ha, scale of 0 to 100) was 60, the “Plant response rating, Foxtail, Giant” value ([7]; 125 g ai/ha, scale of 0 to 100) was 65 and the “Plant response rating, Foxtail, Giant” value ([7]; 16 g ai/ha, scale 0 to 100) was 0. For the same compound, the “Plant response rating, Foxtail, Giant” value ([7]; 31 g ai/ha, scale 0 to 100) was 50, the “Plant response rating, Lambsquarters” value ([8]; 125 g ai/ha, scale of 0 to 100) was 60 and the “Plant response rating, Lambsquarters” value ([8]; 16 g ai/ha, scale 0 to 100) was 5. For the same compound, the “Plant response rating, Lambsquarters” value ([8]; 31 g ai/ha, scale 0 to 100) was 15, the “Plant response rating, Lambsquarters” value ([8]; 62 g ai/ha, scale 0 to 100) was 50 and the “Plant response rating, Morningglory” value ([9]; 125 g ai/ha, scale of 0 to 100) was 0. The “Plant response rating, Morningglory” value ([9]; 16 g ai/ha, scale 0 to 100) was 0, the “Plant response rating, Morningglory” value ([9]; 31 g ai/ha, scale 0 to 100) was 0 and the “Plant response rating, Morningglory” value ([9]; 62 g ai/ha, scale 0 to 100) was 0. The “Plant response rating, Nutsedge, Yellow” value ([10]; 125 g ai/ha, scale of 0 to 100) was 0, the “Plant response rating, Nutsedge, Yellow” value ([10]; 16 g ai/ha, scale 0 to 100) was 0 and the “Plant response rating, Nutsedge, Yellow” value ([10]; 31 g ai/ha, scale 0 to 100) was 0. The “Plant response rating, Nutsedge, Yellow” value ([10]; 62 g ai/ha, scale 0 to 100) was 0, the “Plant response rating, Oilseed Rape” value ([11]; 125 g ai/ha, scale of 0 to 100) was 10 and the “Plant response rating, Oilseed Rape” value ([11]; 16 g ai/ha, scale 0 to 100) was 0. The “Plant response rating, Oilseed Rape” value ([11]; 31 g ai/ha, scale 0 to 100) was 0, the “Plant response rating, Oilseed Rape” value ([11]; 62 g ai/ha, scale 0 to 100) was 0 and the “Plant response rating, Ragweed” value ([12]; 125 g ai/ha, scale of 0 to 100) was 30. The “Plant response rating, Ragweed” value ([12]; 16 g ai/ha, scale 0 to 100) was 0, the “Plant response rating, Ragweed” value ([12]; 31 g ai/ha, scale 0 to 100) was 0 and the “Plant response rating, Ragweed” value ([12]; 62 g ai/ha, scale 0 to 100) was 5. The “Plant response rating, Ryegrass, Italian” value ([13]; 125 g ai/ha, scale of 0 to 100) was 5, the “Plant response rating, Ryegrass, Italian” value ([13]; 16 g ai/ha, scale 0 to 100) was 0 and the “Plant response rating, Ryegrass, Italian” value ([13]; 31 g ai/ha, scale 0 to 100) was 0. The “Plant response rating, Ryegrass, Italian” value ([13]; 62 g ai/ha, scale 0 to 100) was 0, the “Plant response rating, Soybean” value ([14]; 125 g ai/ha, scale of 0 to 100) was 10 and the “Plant response rating, Soybean” value ([14]; 31 g ai/ha, scale 0 to 100) was 20. For the same compound, the “Plant response rating, Soybean” value ([14]; 62 g ai/ha, scale 0 to 100) was 20, the “Plant response rating, Velvetleaf” value ([15]; 125 g ai/ha, scale of 0 to 100) was 5 and the “Plant response rating, Velvetleaf” value ([15]; 16 g ai/ha, scale 0 to 100) was 0. The “Plant response rating, Velvetleaf” value ([15]; 31 g ai/ha, scale 0 to 100) was 5, the “Plant response rating, Velvetleaf” value ([15]; 62 g ai/ha, scale 0 to 100) was 5 and the “Plant response rating, Waterhemp” value ([16]; 125 g ai/ha, scale of 0 to 100) was 100. For the same compound, the “Plant response rating, Waterhemp” value ([16]; 16 g ai/ha, scale 0 to 100) was 50, the “Plant response rating, Waterhemp” value ([16]; 31 g ai/ha, scale 0 to 100) was 75 and the “Plant response rating, Waterhemp” value ([16]; 62 g ai/ha, scale 0 to 100) was 90. The “Plant response rating, Wheat” value ([17]; 125 g ai/ha, scale of 0 to 100) was 10, the “Plant response rating, Wheat” value ([17]; 16 g ai/ha, scale 0 to 100) was 0 and the “Plant response rating, Wheat” value ([17]; 31 g ai/ha, scale 0 to 100) was 0. For the same compound, the “Plant response rating, Wheat” value ([17]; 62 g ai/ha, scale 0 to 100) was 5.

— patent publication US11053204B2, “Pyrimidinyloxy benzene derivatives as herbicides” (FMC Corporation, priority 2015, dated 2021)
